Test results taken from PMC2830944, “Purification and functional characterization of protoplasts and intact vacuoles from grape cells” (BMC Research Notes, 2010).

Columns and labels:
[1] = test system: T1, V-ATPase (vacuolar ATPase, V-H+-ATPase); test: ACMA fluorescence quenching, initial velocity of proton pumping in intact vacuoles; assay type: biochemical, Vitis vinifera; conditions: 100 mM KCl, 2 mM MgCl2, 0.1% BSA, 10 mM MOPS-Tris pH 7.2, 2 μM ACMA; 0.05 to 1.5 mM ATP
T1 construct: gene VHA-A; native multisubunit complex in intact vacuoles isolated from protoplasts of cultured grape berry cells

[2] = test system: V-PPase (vacuolar inorganic pyrophosphatase, V-H+-PPase); conditions: 100 mM KCl, 2 mM MgCl2, 0.1% BSA, 10 mM MOPS-Tris pH 7.2, 2 μM ACMA; 0.1 to 150 μM PPi

Nc1ncnc2c1ncn2[C@@H]1O[C@H](COP(=O)(O)OP(=O)(O)OP(=O)(O)O)[C@@H](O)[C@H]1O [ATP]
Km [1]: 340 µM

O=P(O)(O)OP(=O)(O)O [PPi]
Km [2]: 2 µM
